Test results: patent US8501794B2, “Compounds as cannabinoid receptor ligands” (priority 2007, dated 2013)

Key:
human CB2 receptors = biological target: T1, human CB2 receptors (Homo sapiens, UniProt P34972); assay: human CB2 radioligand binding assay ([3H]CP-55,940 competition)
T1 construct: expressed in transfected cells; host or cells: HEK293

rat CB2 [1] = biological target: T2, rat CB2 (Rattus norvegicus, UniProt Q9QZN9); assay: rat CB2 cyclase functional assay (HitHunter cAMP, HEK cells); format: cell-based; design: expressed in transfected cells; host or cells: HEK; details: forskolin 18 μM
T2 sequence (Q9QZN9 1-360): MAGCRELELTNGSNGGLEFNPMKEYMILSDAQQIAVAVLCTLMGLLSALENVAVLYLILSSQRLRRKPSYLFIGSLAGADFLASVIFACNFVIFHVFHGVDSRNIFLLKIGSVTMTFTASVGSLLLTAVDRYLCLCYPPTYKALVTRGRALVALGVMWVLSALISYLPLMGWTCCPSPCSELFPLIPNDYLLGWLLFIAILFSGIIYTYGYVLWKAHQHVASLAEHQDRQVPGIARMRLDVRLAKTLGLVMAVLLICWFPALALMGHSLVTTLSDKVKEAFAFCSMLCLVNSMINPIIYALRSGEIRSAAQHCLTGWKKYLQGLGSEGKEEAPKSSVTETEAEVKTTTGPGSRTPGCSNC

rat CB2 [2] = biological target: T2, rat CB2; assay: rat CB2 radioligand binding assay ([3H]CP-55,940 competition); design: expressed in transfected cells; host or cells: HEK293

T1 sequence (P34972 whole entry): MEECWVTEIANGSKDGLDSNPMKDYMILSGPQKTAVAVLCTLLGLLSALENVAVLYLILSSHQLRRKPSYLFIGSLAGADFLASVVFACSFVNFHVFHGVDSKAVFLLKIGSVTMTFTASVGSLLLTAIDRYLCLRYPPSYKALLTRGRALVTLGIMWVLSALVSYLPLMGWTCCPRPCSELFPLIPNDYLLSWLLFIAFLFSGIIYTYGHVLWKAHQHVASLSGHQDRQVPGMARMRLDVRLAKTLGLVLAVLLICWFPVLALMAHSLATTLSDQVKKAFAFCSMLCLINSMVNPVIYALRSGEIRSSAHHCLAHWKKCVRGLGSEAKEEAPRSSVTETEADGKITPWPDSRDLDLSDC

Row | SMILES | Ki (human CB2 receptors) | EC50 (rat CB2 [1]) | Ki (rat CB2 [2])
1 | CCCCc1cn(C(C)(C)C)s/c1=N\S(=O)(=O)c1cccc(Cl)c1Cl [Example 122, N-[(5Z)-4-butyl-2-tert-butylisothiazol-5(2H)-ylidene]-2,3-dichlorobenzenesulfonamide] | 18 nM | 1.9 nM | 11 nM
2 | CCCCc1cn(C(C)(C)C)s/c1=N\C(=O)C12CC3CC(CC(C3)C1)C2 [Example 123, N-[(5Z)-4-butyl-2-tert-butylisothiazol-5(2H)-ylidene]adamantane-1-carboxamide] | 0.31 nM | 0.13 nM | 0.17 nM
3 | CCCCc1cn(C(C)(C)C)s/c1=N\C(=NC#N)c1cc(C(F)(F)F)ccc1OC [Example 124, N-[(5Z)-4-butyl-2-tert-butylisothiazol-5(2H)-ylidene]-N′-cyano-2-methoxy-5-(trifluoromethyl)benzenecarboximidamide] | 3 nM | 0.027 nM | 2.3 nM
4 | CCCCc1cn(C(C)(C)C)s/c1=N\C(=O)C1=CC(=O)CC(C)(C)O1 [Example 125, N-[(5Z)-4-butyl-2-tert-butylisothiazol-5(2H)-ylidene]-2,2-dimethyl-4-oxo-3,4-dihydro-2H-pyran-6-carboxamide] | 31 nM | 2.6 nM | 1 nM
5 | CCCCc1cn(C(C)(C)C)s/c1=N\C(=NC#N)c1cc(C(F)(F)F)ccc1OCC [Example 126, N-[(5Z)-4-butyl-2-tert-butylisothiazol-5(2H)-ylidene]-N′-cyano-2-ethoxy-5-(trifluoromethyl)benzenecarboximidamide] | 0.6 nM | 0.076 nM | 1.2 nM
6 | CCCCc1cn(C(C)(C)C)s/c1=N\C(=O)c1cc(C(F)(F)F)ccc1OC [Example 127, N-[(5Z)-4-butyl-2-tert-butylisothiazol-5(2H)-ylidene]-2-methoxy-5-(trifluoromethyl)benzamide] | 3.7 nM | 0.16 nM | 0.43 nM
7 | COc1ccc(Cl)cc1C(=NC#N)/N=c1\sn(C(C)(C)C)cc1CCCC#N [Example 128, N-[(5Z)-2-tert-butyl-4-(3-cyanopropyl)isothiazol-5(2H)-ylidene]-5-chloro-N′-cyano-2-methoxybenzenecarboximidamide] | 15 nM | 0.26 nM | 5.8 nM
8 | CC(C)(C)n1cc(CCCC#N)/c(=N/C(=O)c2cc(Cl)ccc2OCC(F)(F)F)s1 [Example 133, N-[(5Z)-2-tert-butyl-4-(3-cyanopropyl)isothiazol-5(2H)-ylidene]-5-chloro-2-(2,2,2-trifluoroethoxy)benzamide] | 15 nM | 1.4 nM | 1.1 nM
9 | COc1ccc(C(F)(F)F)cc1C(=O)/N=c1\sn(C(C)(C)C)cc1CCCC#N [Example 134, N-[(5Z)-2-tert-butyl-4-(3-cyanopropyl)isothiazol-5(2H)-ylidene]-2-methoxy-5-(trifluoromethyl)benzamide] | 18 nM | 1.6 nM | 1.1 nM
10 | COc1ccc(Cl)cc1C(=O)/N=c1\sn(C(C)(C)C)cc1CC1CCCC1 [Example 136, N-[(5Z)-2-tert-butyl-4-(cyclopentylmethyl)isothiazol-5(2H)-ylidene]-5-chloro-2-methoxybenzamide] | 1.9 nM | 0.051 nM | 0.51 nM
11 | COc1ccc(Cl)cc1C(=O)/N=c1\sn(C(C)(C)C)cc1CCC(C)(C)C#N [Example 137, N-[(5Z)-2-tert-butyl-4-(3-cyano-3-methylbutyl)isothiazol-5(2H)-ylidene]-5-chloro-2-methoxybenzamide] | 7.5 nM | 2.2 nM | 2.6 nM
12 | COc1ccc(Cl)cc1C(=O)/N=c1\sn(C(C)(C)C)cc1CCCCC#N [Example 138, N-[(5Z)-2-tert-butyl-4-(4-cyanobutyl)isothiazol-5(2H)-ylidene]-5-chloro-2-methoxybenzamide] | 5.9 nM | 12.8 nM | 0.9 nM
13 | CCCCc1cn(C(C)(C)C)s/c1=N\C(=O)c1cc(Cl)ccc1OCCF [Example 139, N-[(5Z)-4-butyl-2-tert-butylisothiazol-5(2H)-ylidene]-5-chloro-2-(2-fluoroethoxy)benzamide] | 5.5 nM | 0.059 nM | 2 nM
14 | CCCCc1cn(C(C)(C)C)s/c1=N\C(=O)c1cc(Cl)ccc1OCC(N)=O [Example 140, 2-(2-amino-2-oxoethoxy)-N-[(5Z)-4-butyl-2-tert-butylisothiazol-5(2H)-ylidene]-5-chlorobenzamide] | 11 nM | 0.15 nM | 3.9 nM
15 | CC(C)(C)n1cc(CCCC#N)/c(=N/C(=O)c2cc(Cl)ccc2OCC(N)=O)s1 [Example 141, 2-(2-amino-2-oxoethoxy)-N-[(5Z)-2-tert-butyl-4-(3-cyanopropyl)isothiazol-5(2H)-ylidene]-5-chlorobenzamide] | 56 nM | 0.094 nM | 15 nM
16 | COc1ccc(Cl)cc1C(=O)/N=c1\sn(C(C)(C)C)cc1CCCC(F)(F)F [Example 142, N-[(5Z)-2-tert-butyl-4-(4,4,4-trifluorobutyl)isothiazol-5(2H)-ylidene]-5-chloro-2-methoxybenzamide] | 2.2 nM | 0.062 nM | 0.43 nM
17 | COc1ccc(C(F)(F)F)cc1C(=O)/N=c1\sn(C(C)(C)C)cc1CC(C)C [Example 143, N-[(5Z)-2-tert-butyl-4-isobutylisothiazol-5(2H)-ylidene]-2-methoxy-5-(trifluoromethyl)benzamide] | 11 nM | 0.1 nM | 1.8 nM
18 | CC(C)Cc1cn(C(C)(C)C)s/c1=N\C(=O)c1cc(Cl)ccc1OCCF [Example 144, N-[(5Z)-2-tert-butyl-4-isobutylisothiazol-5(2H)-ylidene]-5-chloro-2-(2-fluoroethoxy)benzamide] | 8.8 nM | 0.1 nM | 1.2 nM
19 | COc1ccc(C#N)cc1C(=O)/N=c1\sn(C(C)(C)C)cc1CC(C)C [Example 145, N-[(5Z)-2-tert-butyl-4-isobutylisothiazol-5(2H)-ylidene]-5-cyano-2-methoxybenzamide] | 58 nM | 0.078 nM | 6.1 nM
20 | CCOc1ccc(C(F)(F)F)cc1C(=O)/N=c1\sn(C(C)(C)C)cc1CC(C)C [Example 146, N-[(5Z)-2-tert-butyl-4-isobutylisothiazol-5(2H)-ylidene]-2-ethoxy-5-(trifluoromethyl)benzamide] | 24 nM | 0.29 nM | 3.1 nM
21 | CCCCCc1cn(C(C)(C)C)s/c1=N\C(=O)c1cc(Cl)ccc1OC [Example 147, N-[(5Z)-2-tert-butyl-4-pentylisothiazol-5(2H)-ylidene]-5-chloro-2-methoxybenzamide] | 1.6 nM | 0.062 nM | 0.15 nM
22 | COc1ccc(Cl)cc1C(=O)/N=c1\sn(C(C)(C)C)cc1CCCCF [Example 148, N-[(5Z)-2-tert-butyl-4-(4-fluorobutyl)isothiazol-5(2H)-ylidene]-5-chloro-2-methoxybenzamide] | 7.6 nM | 0.11 nM | 0.24 nM
23 | COc1ccc(C(F)(F)F)cc1C(=O)/N=c1\sn(C(C)(C)C)cc1CCCCF [Example 149, N-[(5Z)-2-tert-butyl-4-(4-fluorobutyl)isothiazol-5(2H)-ylidene]-2-methoxy-5-(trifluoromethyl)benzamide] | 8.3 nM | 0.23 nM | 0.15 nM
24 | CCCCc1cn(C(C)(C)C(F)(F)F)s/c1=N\C(=O)c1cc(Cl)ccc1OC [Example 151, N-[(5Z)-4-butyl-2-(2,2,2-trifluoro-1,1-dimethylethyl)isothiazol-5(2H)-ylidene]-5-chloro-2-methoxybenzamide] | 9.1 nM | 0.072 nM | 0.4 nM
25 | CCCCc1cn(C(C)(C)CF)s/c1=N\C(=O)c1cc(C(F)(F)F)ccc1OC [Example 152, N-[(5Z)-4-butyl-2-(2-fluoro-1,1-dimethylethyl)isothiazol-5(2H)-ylidene]-2-methoxy-5-(trifluoromethyl)benzamide] | 5.1 nM | 0.071 nM | 0.79 nM
26 | CCCCc1cn(C(C)(C)C)s/c1=N\C(=O)c1cc(Cl)ccc1OCC#N [Example 153, N-[(5Z)-4-butyl-2-tert-butylisothiazol-5(2H)-ylidene]-5-chloro-2-(cyanomethoxy)benzamide] | 13 nM | 0.061 nM | 2.1 nM
27 | CCCCc1cn(C(C)(C)CF)s/c1=N\C(=O)c1cc(Cl)ccc1OC [Example 154, N-[(5Z)-4-butyl-2-(2-fluoro-1,1-dimethylethyl)isothiazol-5(2H)-ylidene]-5-chloro-2-methoxybenzamide] | 5.7 nM | 0.065 nM | 0.32 nM
28 | COc1ccc(Cl)cc1C(=O)/N=c1\sn(C(C)(C)C)cc1OCCCCF [Example 158, N-[(5Z)-2-tert-butyl-4-(4-fluorobutoxy)isothiazol-5(2H)-ylidene]-5-chloro-2-methoxybenzamide] | 48 nM | 0.046 nM | 6.1 nM
29 | CCCCc1cn(C(C)(C)C)s/c1=N\C(=O)[C@H]1CC[C@@](C)(C(=O)OC)C1(C)C [Example 170, Methyl (1R,3S)-3-({[(5Z)-4-butyl-2-tert-butylisothiazol-5(2H)-ylidene]amino}carbonyl)-1,2,2-trimethylcyclopentanecarboxylate] | 1.4 nM | 0.043 nM | 1.7 nM
